Test results published in ChEMBL document CHEMBL1201862, “PubChem BioAssay data set” (2004).
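Protocol summary: plate cells (96-well), add compound at 5 concentrations, incubate 48 h, interpolate endpoints linearly. GI50 = concentration required for 50% inhibition of growth.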 Calls of active or inactive are those of the source. No stated cut-off is given here; in the data, active = GI50 up to about 1.1 µM and inactive = higher.

Columns and labels:
Test in all cases: NCI tumour cell line growth inhibition, 48 h
M19-MEL = system: M19-MEL
DLD-1 = system: DLD-1
LXFL 529 = system: LXFL 529
HOP-18 = system: HOP-18
RXF 631 = system: RXF 631
SNB-78 = system: SNB-78
DMS-114 = system: DMS-114
XF498 = system: XF498

Measured: GI50

C/C(=N\NC(N)=O)C(CN1CCCCC1)C(c1ccccc1)c1c(O)c2ccccc2oc1=O (stereo not drawn)
inactive: M19-MEL > 100 µM | DLD-1 > 100 µM | LXFL 529 > 100 µM | HOP-18 > 100 µM | RXF 631 > 100 µM | SNB-78 > 100 µM | DMS-114 > 100 µM

Nn1c(S)nnc1NNC(=O)C(=O)Nc1cc(Cl)c(Cl)cc1Cl
inactive: M19-MEL > 100 µM | DLD-1 > 100 µM | LXFL 529 > 100 µM | HOP-18 71.1 µM | XF498 90.4 µM | SNB-78 > 100 µM | DMS-114 > 100 µM

C[C@]12CCC(=O)C=C1CC[C@@H]1[C@@H]2CC[C@]2(C)C(=O)NC(=O)C[C@@H]12
inactive: M19-MEL > 100 µM | DLD-1 > 100 µM | LXFL 529 > 100 µM | HOP-18 > 100 µM | XF498 > 100 µM | RXF 631 > 100 µM | SNB-78 > 100 µM | DMS-114 > 100 µM

CCNC(=O)C#CC(=O)NCC
inactive: M19-MEL > 100 µM | DLD-1 > 46.1 µM | LXFL 529 > 93.8 µM | HOP-18 > 100 µM | XF498 > 100 µM | RXF 631 > 100 µM | SNB-78 > 10 µM | DMS-114 > 72.3 µM

CC(C)C1CO[C@]2(C)CCC(=O)N12 (stereo partly drawn)
inactive: M19-MEL > 100 µM | DLD-1 > 100 µM | LXFL 529 > 100 µM | HOP-18 > 100 µM | XF498 > 100 µM | RXF 631 > 100 µM | DMS-114 > 100 µM

O=C1Nc2cc(Cl)ccc2N=CC1NC(=O)C(c1ccccc1)c1ccccc1Cl (stereo not drawn)
inactive: M19-MEL > 100 µM | DLD-1 > 100 µM | LXFL 529 > 100 µM | HOP-18 27.5 µM | RXF 631 > 100 µM | SNB-78 > 100 µM | DMS-114 > 100 µM

[N-]=[N+]=CC(=O)C1(C(=O)C=[N+]=[N-])CC1
inactive: M19-MEL > 100 µM | LXFL 529 > 100 µM | HOP-18 > 100 µM | XF498 > 100 µM | SNB-78 > 100 µM | DMS-114 > 100 µM

O=C(Nc1ccc(Cl)c(Cl)c1)C(=O)Nn1c(S)nc2ccccc2c1=O
inactive: M19-MEL > 100 µM | DLD-1 > 100 µM | LXFL 529 > 100 µM | HOP-18 > 100 µM | XF498 > 100 µM | SNB-78 > 100 µM | DMS-114 > 100 µM

COc1ccc2c(CCNS(=O)(=O)c3ccccc3)c(C(C)=O)[nH]c2c1[N+](=O)[O-]
inactive: LXFL 529 > 100 µM | RXF 631 41.4 µM | SNB-78 48.5 µM

O=C(CC(=O)Nc1cccc(Cl)c1)NNCC(=O)Nc1nnc(-c2ccccc2)s1
inactive: M19-MEL > 100 µM | DLD-1 58.6 µM | LXFL 529 41.3 µM | HOP-18 3.62 µM | XF498 17.7 µM | RXF 631 > 100 µM | SNB-78 97.9 µM | DMS-114 24.4 µM

C/C(=N\NS(=O)(=O)c1ccc(C)cc1)C(CN1CCOCC1)C(c1ccccc1)c1c(O)c2ccccc2oc1=O (stereo not drawn)
inactive: M19-MEL 99.5 µM | DLD-1 > 100 µM | LXFL 529 > 100 µM | HOP-18 > 100 µM | XF498 > 100 µM | RXF 631 > 100 µM | SNB-78 > 100 µM

CN(C)CCCSc1c2ccccc2nc2cc(NCC(=O)Nc3ccccc3-c3ccccc3NC(=O)CNc3ccc4c(SCCCN(C)C)c5ccccc5nc4c3)ccc12
inactive: M19-MEL 49.7 µM | DLD-1 > 100 µM | LXFL 529 > 100 µM | HOP-18 > 100 µM | XF498 71.8 µM | SNB-78 > 100 µM | DMS-114 > 100 µM

CC(C)(C)c1cc(Oc2ccc(C#N)c(C#N)c2)cc(C(C)(C)C)c1
inactive: M19-MEL > 100 µM | DLD-1 > 100 µM | LXFL 529 > 100 µM | HOP-18 > 100 µM | XF498 > 100 µM | RXF 631 31 µM | SNB-78 > 100 µM | DMS-114 42.1 µM

COc1ccc(-c2cc(-c3ccccc3)c(C#N)c(=O)[nH]2)cc1
inactive: M19-MEL > 100 µM | DLD-1 > 100 µM | LXFL 529 > 100 µM | HOP-18 > 100 µM | RXF 631 > 100 µM | SNB-78 > 100 µM | DMS-114 > 100 µM

COc1cccc(-c2cc(C(=O)Nc3ccc(Cl)cc3)nc(N)n2)c1
inactive: M19-MEL 45.7 µM | DLD-1 69.5 µM | LXFL 529 52.7 µM | HOP-18 > 100 µM | XF498 93.8 µM | SNB-78 > 100 µM | DMS-114 30.6 µM

COC(=O)c1c/c(=N\NC(=O)CC(=O)Nc2ccc(C)cc2)c2ccccc2o1
inactive: M19-MEL > 100 µM | DLD-1 > 100 µM | LXFL 529 > 100 µM | HOP-18 > 100 µM | XF498 > 100 µM | SNB-78 > 100 µM | DMS-114 > 100 µM

CC(C)C(Nc1c2ccccc2[n+]([O-])c2ccccc12)C(=O)O (stereo not drawn)
inactive: M19-MEL 88.5 µM | DLD-1 37.7 µM | LXFL 529 32.4 µM | HOP-18 19.4 µM | RXF 631 > 100 µM | SNB-78 > 100 µM | DMS-114 36.2 µM
